Laboratory results from PubChem BioAssay (NCI).
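Grown in 96-well plates, cells were treated for 48 hours with each compound at five concentrations. Insufficient inhibition: endpoint recorded as highest concentration tested. Definition used: TGI = concentration required for complete inhibition of growth.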

What was measured:
Assay in all cases: NCI anticancer screen, dose series, 48 h
786-0 renal = system: 786-0 renal
A498 renal = system: A498 renal
A549 NSCLC = system: A549 NSCLC
ACHN renal = system: ACHN renal
CAKI-1 renal = system: CAKI-1 renal
CCRF-CEM leukemia = system: CCRF-CEM leukemia
COLO 205 colon = system: COLO 205 colon
DU-145 prostate = system: DU-145 prostate
EKVX NSCLC = system: EKVX NSCLC
HCC-2998 colon = system: HCC-2998 colon
HCT-116 colon = system: HCT-116 colon
HCT-15 colon = system: HCT-15 colon
HL-60(TB) leukemia = system: HL-60(TB) leukemia
HOP-92 NSCLC = system: HOP-92 NSCLC
HS 578T breast = system: HS 578T breast
IGROV1 ovarian = system: IGROV1 ovarian
K-562 leukemia = system: K-562 leukemia
KM12 colon = system: KM12 colon
LOX IMVI melanoma = system: LOX IMVI melanoma
M14 melanoma = system: M14 melanoma
MALME-3M melanoma = system: MALME-3M melanoma
MCF7 breast = system: MCF7 breast
MDA-MB-231 breast = system: MDA-MB-231 breast
MDA-N = system: MDA-N
MOLT-4 leukemia = system: MOLT-4 leukemia
NCI-H23 lung = system: NCI-H23 lung
NCI-H460 lung = system: NCI-H460 lung
NCI-H522 lung = system: NCI-H522 lung
NCI/ADR-RES ovarian = system: NCI/ADR-RES ovarian
OVCAR-3 ovarian = system: OVCAR-3 ovarian
OVCAR-4 ovarian = system: OVCAR-4 ovarian
OVCAR-5 ovarian = system: OVCAR-5 ovarian
OVCAR-8 ovarian = system: OVCAR-8 ovarian
RPMI-8226 leukemia = system: RPMI-8226 leukemia
SF-268 CNS = system: SF-268 CNS
SF-295 CNS = system: SF-295 CNS
SF-539 CNS = system: SF-539 CNS
SK-MEL-2 melanoma = system: SK-MEL-2 melanoma
SK-MEL-28 melanoma = system: SK-MEL-28 melanoma
SK-OV-3 ovarian = system: SK-OV-3 ovarian
SN12C renal = system: SN12C renal
SNB-19 CNS = system: SNB-19 CNS
SNB-75 CNS = system: SNB-75 CNS
SR leukemia = system: SR leukemia
SW-620 colon = system: SW-620 colon
T-47D breast = system: T-47D breast
TK-10 renal = system: TK-10 renal
U251 CNS = system: U251 CNS
UACC-257 melanoma = system: UACC-257 melanoma
UACC-62 melanoma = system: UACC-62 melanoma
UO-31 renal = system: UO-31 renal
HOP-62 NSCLC = system: HOP-62 NSCLC
MDA-MB-435 = system: MDA-MB-435
PC-3 prostate = system: PC-3 prostate
RXF 393 renal = system: RXF 393 renal
SK-MEL-5 melanoma = system: SK-MEL-5 melanoma

`O=C(O)CCCc1nc2c(n1-c1ccccc1)C(=O)c1ccccc1C2=O` was tested, and the TGI (786-0 renal) was > 100 µM, the TGI (A498 renal) was > 100 µM and the TGI (A549 NSCLC) was > 100 µM. The TGI (ACHN renal) was > 100 µM, the TGI (CAKI-1 renal) was > 100 µM and the TGI (CCRF-CEM leukemia) was > 100 µM. For the same molecule, the TGI (COLO 205 colon) was > 100 µM, the TGI (DU-145 prostate) was > 100 µM and the TGI (EKVX NSCLC) was > 100 µM. The TGI (HCC-2998 colon) was > 100 µM, the TGI (HCT-116 colon) was > 100 µM and the TGI (HCT-15 colon) was > 100 µM. The TGI (HL-60(TB) leukemia) was > 100 µM, the TGI (HOP-92 NSCLC) was > 100 µM and the TGI (HS 578T breast) was > 100 µM. For the same molecule, the TGI (IGROV1 ovarian) was > 100 µM, the TGI (K-562 leukemia) was > 100 µM and the TGI (KM12 colon) was > 100 µM. The TGI (LOX IMVI melanoma) was > 100 µM, the TGI (M14 melanoma) was > 100 µM and the TGI (MALME-3M melanoma) was 51.8 µM. For the same molecule, the TGI (MCF7 breast) was > 100 µM, the TGI (MDA-MB-231 breast) was > 100 µM and the TGI (MDA-N) was > 100 µM. For the same molecule, the TGI (MOLT-4 leukemia) was > 100 µM, the TGI (NCI-H23 lung) was > 100 µM and the TGI (NCI-H460 lung) was > 100 µM. The TGI (NCI-H522 lung) was > 100 µM, the TGI (NCI/ADR-RES ovarian) was > 100 µM and the TGI (OVCAR-3 ovarian) was 82.7 µM. The TGI (OVCAR-4 ovarian) was 76.2 µM, the TGI (OVCAR-5 ovarian) was > 100 µM and the TGI (OVCAR-8 ovarian) was > 100 µM. The TGI (RPMI-8226 leukemia) was > 100 µM, the TGI (SF-268 CNS) was > 100 µM and the TGI (SF-295 CNS) was > 100 µM. For the same molecule, the TGI (SF-539 CNS) was > 100 µM, the TGI (SK-MEL-2 melanoma) was > 100 µM and the TGI (SK-MEL-28 melanoma) was > 100 µM. The TGI (SK-OV-3 ovarian) was > 100 µM, the TGI (SN12C renal) was > 100 µM and the TGI (SNB-19 CNS) was > 100 µM. For the same molecule, the TGI (SNB-75 CNS) was > 100 µM, the TGI (SR leukemia) was > 100 µM and the TGI (SW-620 colon) was > 100 µM. The TGI (T-47D breast) was > 100 µM, the TGI (TK-10 renal) was > 100 µM and the TGI (U251 CNS) was > 100 µM. The TGI (UACC-257 melanoma) was > 100 µM, the TGI (UACC-62 melanoma) was > 100 µM and the TGI (UO-31 renal) was > 100 µM.
With `C=CC(C)(C)n1cc(C2=C(O)C(=O)C(c3cn(C(C)(C)C=C)c4ccccc34)=C(OC(C)=O)C2=O)c2ccccc21` the TGI (786-0 renal) was 2.8 µM, the TGI (A498 renal) was 2.1 µM and the TGI (ACHN renal) was 2.55 µM. It also gave a TGI (CAKI-1 renal) of 2.28 µM, a TGI (COLO 205 colon) of 3.07 µM and a TGI (DU-145 prostate) of 2.23 µM. It also gave a TGI (HCC-2998 colon) of 2.16 µM, a TGI (HOP-62 NSCLC) of 1.94 µM and a TGI (HOP-92 NSCLC) of 1.95 µM. The TGI (IGROV1 ovarian) was 1.65 µM, the TGI (K-562 leukemia) was 2.17 µM and the TGI (KM12 colon) was 1.97 µM. It also gave a TGI (LOX IMVI melanoma) of 1.72 µM, a TGI (MALME-3M melanoma) of 3.06 µM and a TGI (MDA-MB-231 breast) of 2.63 µM. It also gave a TGI (MDA-MB-435) of 1.74 µM, a TGI (MDA-N) of 1.99 µM and a TGI (NCI-H522 lung) of 2.97 µM. For the same molecule, the TGI (OVCAR-3 ovarian) was 2.25 µM, the TGI (OVCAR-4 ovarian) was 2.64 µM and the TGI (OVCAR-5 ovarian) was 3.08 µM. For the same molecule, the TGI (PC-3 prostate) was 1.99 µM, the TGI (RPMI-8226 leukemia) was 3.88 µM and the TGI (RXF 393 renal) was 2.38 µM. The TGI (SF-295 CNS) was 1.88 µM, the TGI (SK-MEL-28 melanoma) was 2.5 µM and the TGI (SK-MEL-5 melanoma) was 1.87 µM. It also gave a TGI (SK-OV-3 ovarian) of 2.85 µM, a TGI (SNB-75 CNS) of 1.55 µM and a TGI (UACC-257 melanoma) of 2.19 µM. The TGI (UACC-62 melanoma) was 2.18 µM and the TGI (UO-31 renal) was 2.3 µM.
